Assay results as given in US5520918A, “Low irritant skin-cosmetic composition for daily topical use, its application and manufacture” (Mary Kay Cosmetics, Inc., priority 1994, dated 1996).

Experiments:
[1] = test system: skin pH; test: Test I: duration of skin pH changes; type: in vivo, human (volunteer subjects); conditions: text to Test I
Procedure: Tests were performed on volunteer subjects using the procedures, conditions and ingredients substantially as described in connection with Test F above, while employing the proportion of active acidic ingredients indicated.

[2] = test system: hair-loss; test: Hair-loss prevention efficacy of minoxidil combined with the two-component acid system (preliminary data); type: in vivo

O=C(O)C(O)C(O)C(=O)O (stereo not drawn) [(+)tartaric acid]
duration of impact on skin pH changes [1]: 2 hours

Nc1cc(N2CCCCC2)nc(N)[n+]1[O-] [minoxidil]
efficacy of minoxidil in combination (in words) [2]: enhanced by combination with the inventive two-component acid system

O=C(O)c1ccccc1O [salicylic acid, 2-hydroxybenzoic acid]
water solubility (in words): only moderately or sparingly water soluble
water solubility (text to Test I): less than 1 g. in 5 ml. of water
